system: HBV; assay: HBV-DNA Antiviral Assay Using HepG2.117 Cells; format: cell-based; conditions: Hepatitis B virus, HepG2.117, 96 h, intracellular HBV DNA by qPCR, day 4
Protocol: The following assay procedure describes the HBV antiviral assay, using HepG2.117 cells, which carry a stably integrated genotype D HBV genome under the control of a Tet-off promoter, and intracellular HBV DNA quantification as endpoint. Cell viability is assessed in parallel by measuring the intracellular ATP content using ATPlite (Perkin Elmer).
On day 0, HepG2.117 cells (which are maintained in routine cell culture with doxycycline present in the medium at a final concentration of 1 μg/mL) were seeded in 96-well plates (white with clear bottom) at a density of 2.0×10^4 cells/well (0.1 mL/well) in medium without doxycycline to induce pgRNA transcription and subsequent formation of HBV particles. The cells were incubated at 37° C. and 5% CO2.
On day 1, medium was removed from each well, the test articles were diluted in culture medium without doxcycyline and 100 μL was added to cell culture wells (9 concentrations, 4-fold dilution). For each plate, 6 untreated (merely DMSO) wells were included. The final concentration of DMSO in the culture medium was 2%. Each plate was prepared in duplicate (one for HBV DNA extraction, one for ATPlite measurement). The cells were incubated at 37° C. and 5% CO2 for 3 days.
On day 4, cell viability was assessed using ATPlite and cell lysates were prepared for HBV DNA extraction and subsequent quantification by qPCR.
Medium was removed from each well and 100 μL of 0.33% NP-40 in H2O was added to each well. Plates were sealed, incubated at 4° C. for 5 mins, vortexed extensively and centrifuged briefly. Next, 35 μL of lysate was added to 65 μL QuickExtract DNA Extraction Solution (Epicentre) in a PCR plate for each well. PCR plate was incubated at 65° C. for 6 mins, 98° C. for 2 mins and finally cooled to 4° C. HBV DNA was then quantified by qPCR with HBV-specific primers and probes as specified in Table 2 using the Bio-Rad SSOAdvanced Universal Probes Supermix on a CFX96 machine (Bio-Rad). The PCR cycle program consisted of 95° C. for 3 mins, followed by 40 cycles at 95° C. for 10 sec and 60° C. for 30 sec.
A DNA standard was prepared by dilution of an IDT gBlock corresponding to the amplicon with concentrations ranging from 10^2 to 10^8 copies/input (i.e. per 4 μL) and used to generate a standard curve by plotting Cq values vs. HBV DNA standard concentration. The quantity of HBV DNA in each sample was determined by interpolating from the standard curve.
Cell viability was calculated as follows: % Cell viability=(luminescence value of test sample)/(average luminescence value of 2% DMSO control)×100%. HBV DNA inhibition was calculated as follows: 100−(HBV DNA copy number of test sample)/(average HBV DNA copy number of 2% DMSO control)×100%. No normalization to entecavir was required due to the excellent dynamic window of this assay. The CC50, EC so and EC90 values were determined by dose-response curves fitted by GraphPad Prism using “log (agonist) vs. response—Variable slope”.

Compared with `O=C(Nc1ccccc1)C1CN(C(=O)c2ccc(Br)c(Cl)c2)CCS1(=O)=O` (centres unmarked) [Compound 2, 4-(4-bromo-3-chlorobenzoyl)-N-phenylthiomorpholine-2-carboxamide 1,1-dioxide], `O=C(NCc1ccccc1)C1CN(C(=O)c2ccc(Br)c(Cl)c2)CCS1(=O)=O` (centres unmarked) [Compound 3, N-benzyl-4-(4-bromo-3-chlorobenzoyl)thiomorpholine-2-carboxamide 1,1-dioxide] is lower in EC50: 500 to 5000 nM for the first, 100 to 500 nM for the second. The second is the more potent here.

`C[C@H]1CS(=O)(=O)[C@H](c2cccs2)CN1C(=O)Nc1ccc(F)c(Cl)c1` [Compound 20, (2S,5S)—N-(3-chloro-4-fluoro-phenyl)-5-methyl-1,1-dioxo-2-(2-thienyl)-1,4-thiazinane-4-carboxamide] and `C[C@@H]1CS(=O)(=O)[C@@H](c2cccs2)CN1C(=O)c1ccc(Br)c(Cl)c1` [Compound 25, (4-bromo-3-chloro-phenyl)-[(2R,5R)-5-methyl-1,1-dioxo-2-(2-thienyl)-1,4-thiazinan-4-yl]methanone] fall in the same range of EC50: 500 to 5000 nM for the first, 500 to 5000 nM for the second.

`C[C@@H](c1ccccc1)c1cnc([C@@]2(F)CN(C(=O)c3ccc(Br)c(Cl)c3)CCS2(=O)=O)s1` [Compound 41b] and `C[C@H](c1ccccc1)c1cnc([C@@]2(F)CN(C(=O)c3ccc(Br)c(Cl)c3)CCS2(=O)=O)s1` [Compound 41a] cannot be ordered by EC50: no more than 100 nM for the first, no more than 100 nM for the second.

First: O=C(c1ccc(Br)c(Cl)c1)N1CCS(=O)(=O)[C@](F)(C(=O)NCCc2ccccc2)C1 [Compound 38a]
Second: C[C@]1(C(=O)NCc2ccccc2)CN(C(=O)c2ccc(Br)c(Cl)c2)CCS1(=O)=O [Compound 33b]
The EC50 of the first is higher: greater than 5000 nM for the first, 500 to 5000 nM for the second. The second is the more potent here.

`O=C(c1ccc(Br)c(Cl)c1)N1CCS(=O)(=O)C(c2nc(Cc3ccccc3)cs2)C1` (centres unmarked) [Compound 31, (2-(4-benzylthiazol-2-yl)-1,1-dioxidothiomorpholino)(4-bromo-3-chlorophenyl)methanone] and `O=C(c1ccc(Br)c(Cl)c1)N1CCS(=O)(=O)C(c2ncc(Cc3ccccc3)s2)C1` (centres unmarked) [Compound 30, (2-(5-benzylthiazol-2-yl)-1,1-dioxidothiomorpholino)(4-bromo-3-chlorophenyl)methanone] fall in the same range of EC50: 100 to 500 nM for the first, 100 to 500 nM for the second.

Compared with `O=C(c1ccc(Br)c(Cl)c1)N1CCS(=O)(=O)[C@@](F)(c2ncc(Cc3ccccc3)s2)C1` [Compound 37b, (4-bromo-3-chloro-phenyl)-[(2R)-2-(5-benzylthiazol-2-yl)-2-fluoro-1,1-dioxo-1,4-thiazinan-4-yl]methanone], `O=C(c1ccc(Br)c(Cl)c1)N1CCS(=O)(=O)[C@](F)(c2ncc(Cc3ccccc3)s2)C1` [Compound 37a, (4-bromo-3-chloro-phenyl)-[(2S)-2-(5-benzylthiazol-2-yl)-2-fluoro-1,1-dioxo-1,4-thiazinan-4-yl]methanone] is lower in EC50: 500 to 5000 nM for the first, no more than 100 nM for the second.

`CC1(c2nccs2)CN(C(=O)c2ccc(Br)c(Cl)c2)CCS1(=O)=O` (centres unmarked) [Compound 34] and `O=C(c1ccc(Br)c(Cl)c1)N1CCS(=O)(=O)[C@@](F)(c2ncc(-c3ccccc3)s2)C1` [Compound 39] fall in the same range of EC50: 500 to 5000 nM for the first, 500 to 5000 nM for the second.

`O=C(c1ccc(Br)c(Cl)c1)N1CCS(=O)(=O)C(c2nnco2)C1` (centres unmarked) [Compound 28, (4-bromo-3-chloro-phenyl)-[2-(1,3,4-oxadiazol-2-yl)-1,1-dioxo-1,4-thiazinan-4-yl]methanone] and `O=C(NCCc1ccccc1)C1CN(C(=O)c2ccc(Br)c(Cl)c2)CCS1(=O)=O` (centres unmarked) [Compound 4, 4-(4-bromo-3-chlorobenzoyl)-N-phenethylthiomorpholine-2-carboxamide 1,1-dioxide] fall in the same range of EC50: 500 to 5000 nM for the first, 500 to 5000 nM for the second.

`C[C@@H](c1cnc([C@]2(F)CN(C(=O)c3ccc(Br)c(C#N)c3)CCS2(=O)=O)s1)c1ccccc1F` [Compound 43c] and `C[C@H](c1cnc([C@]2(F)CN(C(=O)c3ccc(Br)c(C#N)c3)CCS2(=O)=O)s1)c1ccccc1F` [Compound 43d] fall in the same range of EC50: 500 to 5000 nM for the first, 500 to 5000 nM for the second.

`N#Cc1cc(C(=O)N2CCS(=O)(=O)[C@](F)(c3ncc(Cc4ccccc4-c4ncccn4)s3)C2)ccc1Br` [Compound 45b] and `O=C(c1ccc(Cl)cc1F)N1CCS(=O)(=O)C(c2cccs2)C1` (centres unmarked) [Compound 10b, (4-chloro-2-fluoro-phenyl)-[1,1-dioxo-2-(2-thienyl)-1,4-thiazinan-4-yl]methanone] fall in the same range of EC50: 500 to 5000 nM for the first, 500 to 5000 nM for the second.

same assay, conditions: intracellular HBV DNA by qPCR, day 4

First: O=C(c1ccc(Br)c(Cl)c1)N1CCS(=O)(=O)C(F)(c2ncc(Cc3ccccc3-c3ncccn3)s2)C1 (racemic) [Compound 44b, (rac-2S)-4-(4-bromo-3-chlorobenzoyl)-2-fluoro-2-(5-[[2-(pyrimidin-2-yl)phenyl]methyl]-1,3-thiazol-2-yl)-1λ^6-thiomorpholine-1,1-dione]
Second: CC1(c2ncc(Cc3ccccc3)s2)CN(C(=O)c2ccc(Br)c(Cl)c2)CCS1(=O)=O (racemic) [Compound 36b, (4-bromo-3-chloro-phenyl)-[rac-(2R)-2-(5-benzylthiazol-2-yl)-2-methyl-1,1-dioxo-1,4-thiazinan-4-yl]methanone]
The EC50 of the first is higher: 500 to 5000 nM for the first, 100 to 500 nM for the second. The second is the more potent here.

Compared with `O=C(c1ccc(Cl)c(F)c1)N1CCS(=O)(=O)C(c2cccs2)C1` (single isomer, unassigned) [Compound 7a, (4-chloro-3-fluoro-phenyl)-[1,1-dioxo-2-(2-thienyl)-1,4-thiazinan-4-yl]methanone], `Cc1cc(Cl)ccc1C(=O)N1CCS(=O)(=O)C(c2cccs2)C1` (single isomer, unassigned) [Compound 12a, (4-chloro-2-methyl-phenyl)-[1,1-dioxo-2-(2-thienyl)-1,4-thiazinan-4-yl]methanone] is higher in EC50: 100 to 500 nM for the first, greater than 5000 nM for the second.

First: O=C(Nc1ccc(F)c(Cl)c1)N1CCS(=O)(=O)C(c2ccccc2)C1 (single isomer, unassigned) [Compound 18b, N-(3-chloro-4-fluoro-phenyl)-1, l-dioxo-2-phenyl-1,4-thiazinane-4-carboxamide]
Second: O=C(c1ccc(Br)c(Cl)c1)N1CCS(=O)(=O)C(c2ccccc2)C1 (single isomer, unassigned) [Compound 19b, (4-bromo-3-chloro-phenyl)-(1,1-dioxo-2-phenyl-1,4-thiazinan-4-yl)methanone]
The EC50 of the first is higher: greater than 5000 nM for the first, 500 to 5000 nM for the second. The second is the more potent here.

`C[C@H]1CS(=O)(=O)[C@@](F)(c2ncc(Cc3ccccc3)s2)CN1C(=O)c1ccc(Br)c(Cl)c1` (stereo in doubt) [Compound 48b, (4-bromo-3-chloro-phenyl)-[(rac-2R,5S)-2-(5-benzylthiazol-2-yl)-2-fluoro-5-methyl-1,1-dioxo-1,4-thiazinan-4-yl]methanone] and `C[C@@H]1CS(=O)(=O)[C@@](F)(c2ncc(Cc3ccccc3)s2)CN1C(=O)c1ccc(Br)c(Cl)c1` (stereo in doubt) [Compound 47b, (4-bromo-3-chloro-phenyl)-[(rac-2R,5R)-2-(5-benzylthiazol-2-yl)-2-fluoro-5-methyl-1,1-dioxo-1,4-thiazinan-4-yl]methanone] cannot be ordered by EC50: 100 to 500 nM for the first, no more than 100 nM for the second.

First: O=C(c1ccc(Br)c(Cl)c1)N1CCS(=O)(=O)C(F)(c2ncc(Cc3ccccc3-c3ncccn3)s2)C1 (racemic) [Compound 44a, (rac-2R)-4-(4-bromo-3-chlorobenzoyl)-2-fluoro-2-(5-[[2-(pyrimidin-2-yl)phenyl]methyl]-1,3-thiazol-2-yl)-1λ^6-thiomorpholine-1,1-dione]
Second: CC1(c2ncc(Cc3ccccc3)s2)CN(C(=O)c2ccc(Br)c(Cl)c2)CCS1(=O)=O (racemic) [Compound 36a, (4-bromo-3-chloro-phenyl)-[rac-(2S)-2-(5-benzylthiazol-2-yl)-2-methyl-1,1-dioxo-1,4-thiazinan-4-yl]methanone]
The EC50 of the first is lower: no more than 100 nM for the first, 500 to 5000 nM for the second. The first is the more potent here.

Molecule `C[C@H](c1cnc(C2(F)CN(C(=O)c3ccc(Br)c(Cl)c3)CCS2(=O)=O)s1)c1ccccc1F` (mixture of isomers) [Compound 42b, (rac-2R)-4-(4-bromo-3-chlorobenzoyl)-2-fluoro-2-[5-[(rac-1S)-1-(2-fluorophenyl)ethyl]-1,3-thiazol-2-yl]-1λ^6-thiomorpholine-1,1-dione] has an EC50 of no more than 100 nM.
With `C[C@H](c1cnc(C2(F)CN(C(=O)c3ccc(Br)c(Cl)c3)CCS2(=O)=O)s1)c1ccccc1F` (mixture of isomers) [Compound 42d, (rac-2S)-4-(4-bromo-3-chlorobenzoyl)-2-fluoro-2-[5-[(rac-1S)-1-(2-fluorophenyl)ethyl]-1,3-thiazol-2-yl]-1λ^6-thiomorpholine-1,1-dione] the EC50 was 500 to 5000 nM.

— US11464783B2, “Heterocyclic compounds” (Aligos Therapeutics, Inc., priority 2019, dated 2022)
